From ChEMBL document CHEMBL1201862, “PubChem BioAssay data set” (2004) come the findings set out here.

In assay [1] the target is DNA dC->dU-editing enzyme APOBEC-3A (Homo sapiens, UniProt P31941). Nature of the assay: A3A deaminase inhibition for selectivity – biochemical, dose response (AID 504722). The assay is classed as functional.
Assay [2] concerns the target Glucose-6-phosphate 1-dehydrogenase (Homo sapiens, UniProt P11413). Nature of the assay: inhibition of Homo sapiens G6PD, dose series – biochemical, fluorescence, selectivity assay for P. falciparum G6PD inhibitor project, dose response (AID 504792). The assay is classed as functional.
The target of a further assay is T1, Hexokinase HKDC1 (Homo sapiens, UniProt Q2TB90).
T1 sequence (Q2TB90 whole entry): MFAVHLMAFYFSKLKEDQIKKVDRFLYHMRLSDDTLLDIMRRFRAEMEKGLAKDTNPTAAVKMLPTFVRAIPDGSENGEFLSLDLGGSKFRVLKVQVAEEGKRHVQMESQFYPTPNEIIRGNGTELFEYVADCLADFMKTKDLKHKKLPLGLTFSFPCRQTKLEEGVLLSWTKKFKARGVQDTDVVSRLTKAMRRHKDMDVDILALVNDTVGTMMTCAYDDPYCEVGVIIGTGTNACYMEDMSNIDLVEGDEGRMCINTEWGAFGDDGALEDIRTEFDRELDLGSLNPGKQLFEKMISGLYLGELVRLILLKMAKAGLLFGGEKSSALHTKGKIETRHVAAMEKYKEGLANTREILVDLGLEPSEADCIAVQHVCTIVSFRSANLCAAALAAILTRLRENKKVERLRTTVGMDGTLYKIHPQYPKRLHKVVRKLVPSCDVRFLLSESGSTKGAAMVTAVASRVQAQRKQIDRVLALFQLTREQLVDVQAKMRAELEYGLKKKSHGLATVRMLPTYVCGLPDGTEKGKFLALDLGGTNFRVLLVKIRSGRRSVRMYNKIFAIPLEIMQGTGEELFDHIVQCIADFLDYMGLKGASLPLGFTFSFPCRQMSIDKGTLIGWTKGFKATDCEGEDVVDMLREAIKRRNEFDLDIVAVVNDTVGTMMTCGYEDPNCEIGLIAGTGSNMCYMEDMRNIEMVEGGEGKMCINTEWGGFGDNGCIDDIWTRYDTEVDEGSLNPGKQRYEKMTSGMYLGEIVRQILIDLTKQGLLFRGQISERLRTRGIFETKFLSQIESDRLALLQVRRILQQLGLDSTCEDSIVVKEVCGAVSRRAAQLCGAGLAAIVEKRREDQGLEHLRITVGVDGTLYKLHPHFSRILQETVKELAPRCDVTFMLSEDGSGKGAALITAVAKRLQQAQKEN
Nature of the assay: activation of HKDC1 glucose phosphorylation – biochemical, W721R variant, dose response (AID 504730). The assay is classed as functional.

The target of assay [3] is DNA dC->dU-editing enzyme APOBEC-3G (Homo sapiens, UniProt Q9HC16). Nature of the assay: Dose Response confirmation of small molecule APOBEC3G DNA Deaminase Inhibitors via a fluorescence-based single-stranded DNA deaminase assay. [Related pubchem assays (depositor defined):AID493012, AID493028]. The assay is classed as functional.
Sequence of DNA dC->dU-editing enzyme APOBEC-3G (Q9HC16 whole entry): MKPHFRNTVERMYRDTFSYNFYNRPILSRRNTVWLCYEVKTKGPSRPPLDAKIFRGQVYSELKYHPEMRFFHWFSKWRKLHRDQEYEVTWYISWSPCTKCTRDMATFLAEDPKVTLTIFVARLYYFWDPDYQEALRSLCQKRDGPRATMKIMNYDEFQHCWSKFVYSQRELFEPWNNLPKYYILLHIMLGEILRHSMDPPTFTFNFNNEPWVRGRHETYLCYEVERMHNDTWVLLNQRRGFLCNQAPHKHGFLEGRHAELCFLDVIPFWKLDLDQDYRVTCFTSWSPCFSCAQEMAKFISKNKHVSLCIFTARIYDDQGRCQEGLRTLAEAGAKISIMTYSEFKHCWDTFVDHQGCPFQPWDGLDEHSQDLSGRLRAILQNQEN
A further assay concerns the target T2, Hexokinase-1 (Homo sapiens, UniProt P19367).
T2 sequence (P19367 whole entry): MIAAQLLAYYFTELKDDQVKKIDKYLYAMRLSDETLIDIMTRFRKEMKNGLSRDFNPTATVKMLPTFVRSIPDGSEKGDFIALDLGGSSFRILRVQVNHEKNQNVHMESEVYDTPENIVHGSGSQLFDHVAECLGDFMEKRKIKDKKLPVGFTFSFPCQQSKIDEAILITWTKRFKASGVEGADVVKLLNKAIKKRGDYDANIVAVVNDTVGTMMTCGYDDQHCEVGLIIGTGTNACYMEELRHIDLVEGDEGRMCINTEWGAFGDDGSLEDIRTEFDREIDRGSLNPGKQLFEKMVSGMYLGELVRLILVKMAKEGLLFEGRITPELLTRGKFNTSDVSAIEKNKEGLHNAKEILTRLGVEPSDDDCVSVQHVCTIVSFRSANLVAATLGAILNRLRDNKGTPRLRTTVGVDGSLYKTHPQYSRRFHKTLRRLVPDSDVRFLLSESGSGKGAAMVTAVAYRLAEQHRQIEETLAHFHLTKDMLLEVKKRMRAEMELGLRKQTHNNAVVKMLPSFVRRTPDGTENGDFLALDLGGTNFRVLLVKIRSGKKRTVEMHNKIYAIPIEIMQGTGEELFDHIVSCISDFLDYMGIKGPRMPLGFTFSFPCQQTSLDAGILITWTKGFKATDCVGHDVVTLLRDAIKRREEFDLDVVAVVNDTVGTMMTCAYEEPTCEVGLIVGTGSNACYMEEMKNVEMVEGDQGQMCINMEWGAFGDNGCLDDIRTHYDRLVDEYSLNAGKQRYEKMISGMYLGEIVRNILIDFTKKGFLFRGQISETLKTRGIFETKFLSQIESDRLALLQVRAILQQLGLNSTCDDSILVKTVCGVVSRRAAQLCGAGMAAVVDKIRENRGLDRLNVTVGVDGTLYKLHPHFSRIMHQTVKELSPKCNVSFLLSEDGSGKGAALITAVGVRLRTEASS
Nature of the assay: HK1 enzyme activation by HKDC1 hits – biochemical, selectivity assay for HKDC1 activator project, dose response (AID 504762). The assay is classed as functional.

The nature of assay [4]: decrease of insulin promoter-GFP reporter – imaging, high-content screening, mouse beta cells (AID 1628). The assay is classed as functional. The note with it: MIN6.
Assay [5] in a line: MIN6 cell viability loss – mouse insulinoma, cytotoxicity control, dose response (AID 2122).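 Also: confirmatory high-throughput counterscreen run to flag cytotoxic compounds.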 The assay is classed as functional.
The nature of assay [6]: Luminescence Cell-Based Dose Retest to Confirm Inhibitors of Cancer Stem Cells. [Related pubchem assays (depositor defined):AID2717, AID2721]. The assay is classed as functional. The note with it: Homo sapiens.
Assay [7] has as its target T3, E3 ubiquitin-protein ligase XIAP (Homo sapiens, UniProt P98170). Kind of assay: Counter Screen using XIAP-Bir3 for Chemical Antagonists of Bir1/2 domains of IAP-family anti-apoptotic proteins. [Related pubchem assays (depositor defined):AID1018, AID1449, AID1514, AID1638, AID1749, AID1750, AID488957, AID488963]. (Counterscreens check selectivity or assay interference.)

Assay [8] deals with T3, E3 ubiquitin-protein ligase XIAP. Nature of the assay: small molecules displacing peptide from XIAP – biochemical, IAP family, fluorescence polarization (AID 1018). The assay is classed as functional.
The target in assay [9] is Delta-type opioid receptor (Homo sapiens, UniProt P41143). Nature of the assay: Counterscreen for agonists of heterodimerization of the mu 1 (OPRM1) and delta 1 (OPRD1) opioid receptors: Luminescence-based cell-based high throughput dose response assay to identify agonists of OPRD1 homodimerization. [Related pubchem assays (depositor defined):AID504326, AID504355, AID504692, AID504904, AID504905]. The assay is classed as functional.
Sequence of Delta-type opioid receptor (P41143 whole entry): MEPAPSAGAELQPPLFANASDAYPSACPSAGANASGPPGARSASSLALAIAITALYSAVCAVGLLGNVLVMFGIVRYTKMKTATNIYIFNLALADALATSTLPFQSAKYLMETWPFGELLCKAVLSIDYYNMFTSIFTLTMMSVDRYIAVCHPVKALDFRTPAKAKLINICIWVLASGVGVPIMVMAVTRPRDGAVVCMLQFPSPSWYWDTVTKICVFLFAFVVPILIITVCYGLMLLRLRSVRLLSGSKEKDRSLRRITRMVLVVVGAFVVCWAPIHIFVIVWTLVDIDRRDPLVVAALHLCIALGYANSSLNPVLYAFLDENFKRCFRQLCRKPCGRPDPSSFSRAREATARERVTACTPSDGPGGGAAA

For a further assay, the target named is Mu-type opioid receptor (Homo sapiens, UniProt P35372). Nature of the assay: Counterscreen for agonists of heterodimerization of the mu 1 (OPRM1) and delta 1 (OPRD1) opioid receptors: Luminescence-based cell-based high throughput dose response assay to identify agonists of OPRM1 homodimerization. The assay is classed as functional.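 Also: U2OS cells expressing OPRM1 and beta-arrestin as split beta-galactosidase partners.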
Sequence of Mu-type opioid receptor (P35372 whole entry): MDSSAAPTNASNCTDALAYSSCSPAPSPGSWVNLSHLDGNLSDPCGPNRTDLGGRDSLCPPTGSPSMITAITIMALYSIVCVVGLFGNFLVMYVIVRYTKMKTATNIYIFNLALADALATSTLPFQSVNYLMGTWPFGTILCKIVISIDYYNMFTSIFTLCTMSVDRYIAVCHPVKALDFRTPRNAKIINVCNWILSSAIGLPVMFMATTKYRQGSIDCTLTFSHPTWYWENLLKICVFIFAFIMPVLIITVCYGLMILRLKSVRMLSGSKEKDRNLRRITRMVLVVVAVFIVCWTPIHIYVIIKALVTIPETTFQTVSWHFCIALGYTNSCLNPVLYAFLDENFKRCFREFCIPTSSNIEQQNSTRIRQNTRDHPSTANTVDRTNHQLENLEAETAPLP
Assay [10] concerns the target 5-hydroxytryptamine receptor 5A (Homo sapiens, UniProt P47898). Kind of assay: Counterscreen for agonists of OPRM1-OPRD1 heterodimerization: luminescence-based cell-based high throughput dose response assay to identify agonists of 5-hydroxytryptamine (serotonin) 5A receptor (HTR5A). [Related pubchem assays (depositor defined):AID504326, AID504355, AID504692, AID504904, AID504905]. The assay is classed as functional.

A short description of assay [11]: viability of uninfected HEp-2 cells – cell-based, HTS, cytotoxicity control for RSV inhibitor project, dose response (AID 2410). The assay is classed as functional. The note with it: human respiratory syncytial virus.
For assay [12], the target named is C-C chemokine receptor type 6 (Homo sapiens, UniProt P51684). Nature of the assay: antagonism of CCR6 beta-arrestin recruitment – cell-based, luminescent beta-arrestin readout, dose response (AID 504728). The assay is classed as functional. A general note: Arrestin recruitment assays detect the binding of arrestin to an activated receptor.
Sequence of C-C chemokine receptor type 6 (P51684 whole entry): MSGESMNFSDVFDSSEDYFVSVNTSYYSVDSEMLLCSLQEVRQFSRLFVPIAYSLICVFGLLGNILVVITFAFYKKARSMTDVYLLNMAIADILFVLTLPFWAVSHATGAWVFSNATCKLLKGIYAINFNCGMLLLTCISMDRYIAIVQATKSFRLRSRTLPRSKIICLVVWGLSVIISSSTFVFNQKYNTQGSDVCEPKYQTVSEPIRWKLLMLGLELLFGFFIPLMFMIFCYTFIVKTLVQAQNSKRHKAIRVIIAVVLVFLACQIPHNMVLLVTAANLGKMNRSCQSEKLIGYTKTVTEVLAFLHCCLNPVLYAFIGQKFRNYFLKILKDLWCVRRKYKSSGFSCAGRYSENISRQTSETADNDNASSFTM
In the next assay the target is T4, CAAX prenyl protease 2 (Saccharomyces cerevisiae S288c, UniProt Q03530).
T4 sequence (Q03530 whole entry): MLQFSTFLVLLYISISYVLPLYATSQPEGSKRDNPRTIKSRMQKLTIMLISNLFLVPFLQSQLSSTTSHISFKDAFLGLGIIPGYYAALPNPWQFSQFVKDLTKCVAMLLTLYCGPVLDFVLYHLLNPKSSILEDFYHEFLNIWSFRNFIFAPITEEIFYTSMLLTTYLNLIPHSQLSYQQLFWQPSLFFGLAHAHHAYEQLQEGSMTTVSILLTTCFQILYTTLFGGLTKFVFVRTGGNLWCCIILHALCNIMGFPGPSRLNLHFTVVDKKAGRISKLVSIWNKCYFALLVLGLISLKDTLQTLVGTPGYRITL
The assay is classed as biochemical.

A further assay concerns the target Beta-galactosidase (Escherichia coli, UniProt Q8VNN2). Kind of assay: detection-enzyme interference by beta-gal modulators – biochemical, E. coli enzyme, set 3, artefact control for CCR6 antagonist project, dose response (AID 504712). The assay is classed as functional.
For another assay, the target named is T5, CAAX prenyl protease 1 (Saccharomyces cerevisiae S288c, UniProt P47154).
T5 sequence (P47154 whole entry): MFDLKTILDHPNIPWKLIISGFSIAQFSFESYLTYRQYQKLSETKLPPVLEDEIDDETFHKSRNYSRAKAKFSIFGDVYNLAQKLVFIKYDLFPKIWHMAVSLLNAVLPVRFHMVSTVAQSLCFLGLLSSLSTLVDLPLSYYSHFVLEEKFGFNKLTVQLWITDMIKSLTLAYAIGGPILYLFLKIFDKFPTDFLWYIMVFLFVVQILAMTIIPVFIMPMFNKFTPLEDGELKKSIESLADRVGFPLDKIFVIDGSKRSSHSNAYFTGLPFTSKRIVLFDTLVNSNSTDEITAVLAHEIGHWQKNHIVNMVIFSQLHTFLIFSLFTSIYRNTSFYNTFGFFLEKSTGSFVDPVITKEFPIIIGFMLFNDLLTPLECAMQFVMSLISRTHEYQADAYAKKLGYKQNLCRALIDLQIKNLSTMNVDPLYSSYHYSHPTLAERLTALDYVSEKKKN
Kind of assay: yeast CAAX protease Ste24 inhibition – biochemical, S. cerevisiae, plate reader, cherry-pick, dose response (AID 488815).

The target of assay [13] is G-protein coupled receptor 55 (Homo sapiens, UniProt Q9Y2T6). Kind of assay: selective activators of receptor GPR55 – imaging, U2OS cells, beta-arrestin-GFP redistribution, primary screen (AID 1961). The assay is classed as functional.
Sequence of G-protein coupled receptor 55 (Q9Y2T6 whole entry): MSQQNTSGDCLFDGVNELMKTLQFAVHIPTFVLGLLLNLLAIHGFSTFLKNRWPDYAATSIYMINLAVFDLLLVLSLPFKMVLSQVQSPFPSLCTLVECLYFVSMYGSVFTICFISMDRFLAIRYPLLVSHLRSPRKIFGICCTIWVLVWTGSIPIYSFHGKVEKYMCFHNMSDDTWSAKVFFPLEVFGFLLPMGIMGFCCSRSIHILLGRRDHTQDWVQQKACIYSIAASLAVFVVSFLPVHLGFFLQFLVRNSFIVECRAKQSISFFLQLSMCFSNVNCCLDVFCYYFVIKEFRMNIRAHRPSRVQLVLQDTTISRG
Assay [14] addresses T6, Mannose-6-phosphate isomerase (Homo sapiens, UniProt P34949).
T6 sequence (P34949 whole entry): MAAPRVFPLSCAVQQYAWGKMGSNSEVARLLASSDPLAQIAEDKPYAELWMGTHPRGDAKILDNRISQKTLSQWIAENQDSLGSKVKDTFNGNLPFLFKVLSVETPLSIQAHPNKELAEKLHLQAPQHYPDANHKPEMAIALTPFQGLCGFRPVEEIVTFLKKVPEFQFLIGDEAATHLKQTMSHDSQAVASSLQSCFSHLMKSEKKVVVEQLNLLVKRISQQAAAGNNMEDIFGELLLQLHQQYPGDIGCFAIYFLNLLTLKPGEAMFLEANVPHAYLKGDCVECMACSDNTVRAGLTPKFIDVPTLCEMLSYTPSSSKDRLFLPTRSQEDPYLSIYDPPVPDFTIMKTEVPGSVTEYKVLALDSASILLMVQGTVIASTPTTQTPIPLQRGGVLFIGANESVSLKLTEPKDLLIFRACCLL
Kind of assay: phosphomannose isomerase inhibition – biochemical, fluorescence intensity, confirmation (AID 1535).

The next assay has as its target Phosphomannomutase 2 (Homo sapiens, UniProt O15305). Kind of assay: Counter screen SAR assay for PMM2 inhibitors via a fluorescence intensity assay. [Related pubchem assays (depositor defined):AID1545, AID1574].
Assay [15] has as its target Phosphoethanolamine/phosphocholine phosphatase (Homo sapiens, UniProt Q8TCT1). Nature of the assay: SAR assay for compounds that inhibit PHOSPHO1. [Related pubchem assays (depositor defined):AID1545, AID1565, AID1574].

Activity calls are given as the source filed them.

As usually defined, the IC50 is the concentration that gives 50% inhibition. What is called EC50 is the concentration needed to bring the measured effect to its halfway point. One may read the AC50 as the concentration at which the activity in the assay is half-maximal. As usually defined, the CC50 is the concentration that lowers cell viability or growth by half.

T3 sequence (P98170 whole entry): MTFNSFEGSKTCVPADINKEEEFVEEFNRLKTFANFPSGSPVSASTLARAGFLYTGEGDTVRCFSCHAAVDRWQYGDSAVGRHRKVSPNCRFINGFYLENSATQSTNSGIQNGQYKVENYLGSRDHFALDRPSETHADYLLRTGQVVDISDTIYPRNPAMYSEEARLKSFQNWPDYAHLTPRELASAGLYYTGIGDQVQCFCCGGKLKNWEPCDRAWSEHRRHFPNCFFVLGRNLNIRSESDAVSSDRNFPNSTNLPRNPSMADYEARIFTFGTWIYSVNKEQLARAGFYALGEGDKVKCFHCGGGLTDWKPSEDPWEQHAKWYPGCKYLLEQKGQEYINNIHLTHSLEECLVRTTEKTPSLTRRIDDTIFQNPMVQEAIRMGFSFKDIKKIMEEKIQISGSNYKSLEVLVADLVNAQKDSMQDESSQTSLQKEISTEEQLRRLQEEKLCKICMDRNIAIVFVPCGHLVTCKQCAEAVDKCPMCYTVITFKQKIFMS
Sequence of DNA dC->dU-editing enzyme APOBEC-3A (P31941 whole entry): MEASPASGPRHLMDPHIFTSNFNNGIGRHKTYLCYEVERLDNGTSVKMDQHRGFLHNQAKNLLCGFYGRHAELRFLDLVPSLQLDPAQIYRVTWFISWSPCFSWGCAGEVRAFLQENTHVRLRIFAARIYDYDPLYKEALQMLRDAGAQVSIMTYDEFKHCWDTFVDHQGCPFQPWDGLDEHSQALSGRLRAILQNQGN
Sequence of Beta-galactosidase (Q8VNN2 whole entry): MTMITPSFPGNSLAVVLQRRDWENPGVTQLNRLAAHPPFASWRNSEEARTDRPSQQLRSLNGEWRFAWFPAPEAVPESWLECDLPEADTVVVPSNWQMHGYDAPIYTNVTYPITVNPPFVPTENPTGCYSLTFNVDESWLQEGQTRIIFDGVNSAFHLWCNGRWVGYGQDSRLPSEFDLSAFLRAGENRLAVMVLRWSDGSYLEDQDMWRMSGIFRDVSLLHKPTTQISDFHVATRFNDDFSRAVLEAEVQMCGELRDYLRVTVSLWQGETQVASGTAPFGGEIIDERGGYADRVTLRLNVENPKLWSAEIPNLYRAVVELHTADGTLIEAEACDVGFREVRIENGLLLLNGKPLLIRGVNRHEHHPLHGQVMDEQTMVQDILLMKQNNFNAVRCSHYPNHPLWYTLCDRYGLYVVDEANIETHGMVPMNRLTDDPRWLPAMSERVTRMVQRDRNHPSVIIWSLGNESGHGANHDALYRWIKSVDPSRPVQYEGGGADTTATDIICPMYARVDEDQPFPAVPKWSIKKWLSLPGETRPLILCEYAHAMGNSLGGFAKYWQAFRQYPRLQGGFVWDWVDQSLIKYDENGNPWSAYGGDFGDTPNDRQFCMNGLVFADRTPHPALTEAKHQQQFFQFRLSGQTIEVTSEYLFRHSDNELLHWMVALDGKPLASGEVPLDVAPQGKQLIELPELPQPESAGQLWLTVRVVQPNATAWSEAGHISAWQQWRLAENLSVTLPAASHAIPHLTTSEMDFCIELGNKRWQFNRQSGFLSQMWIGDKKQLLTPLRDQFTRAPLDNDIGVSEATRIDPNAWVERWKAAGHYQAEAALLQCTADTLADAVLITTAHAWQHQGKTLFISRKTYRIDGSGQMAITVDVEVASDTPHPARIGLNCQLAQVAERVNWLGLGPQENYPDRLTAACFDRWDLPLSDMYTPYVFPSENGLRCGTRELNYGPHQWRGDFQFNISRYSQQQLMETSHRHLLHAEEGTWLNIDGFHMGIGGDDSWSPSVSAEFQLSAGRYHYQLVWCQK
Sequence of Phosphoethanolamine/phosphocholine phosphatase (Q8TCT1 whole entry): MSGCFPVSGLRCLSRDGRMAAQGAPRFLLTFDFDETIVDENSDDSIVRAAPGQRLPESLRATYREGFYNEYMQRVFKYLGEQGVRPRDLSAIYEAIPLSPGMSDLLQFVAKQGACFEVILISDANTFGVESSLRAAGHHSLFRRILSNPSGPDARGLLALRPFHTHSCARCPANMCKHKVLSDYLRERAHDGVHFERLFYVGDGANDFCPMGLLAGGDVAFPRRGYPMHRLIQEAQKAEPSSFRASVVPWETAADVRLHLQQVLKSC
Sequence of 5-hydroxytryptamine receptor 5A (P47898 whole entry): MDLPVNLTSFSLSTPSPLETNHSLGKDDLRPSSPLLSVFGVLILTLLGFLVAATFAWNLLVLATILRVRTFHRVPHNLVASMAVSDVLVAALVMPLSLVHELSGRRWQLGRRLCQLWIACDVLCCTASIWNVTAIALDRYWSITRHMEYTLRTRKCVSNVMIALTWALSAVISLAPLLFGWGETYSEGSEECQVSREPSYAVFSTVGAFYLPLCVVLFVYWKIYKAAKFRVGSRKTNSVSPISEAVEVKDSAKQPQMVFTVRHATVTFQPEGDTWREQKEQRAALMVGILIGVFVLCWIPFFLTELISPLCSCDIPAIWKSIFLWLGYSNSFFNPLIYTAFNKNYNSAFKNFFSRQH
Sequence of Phosphomannomutase 2 (O15305 whole entry): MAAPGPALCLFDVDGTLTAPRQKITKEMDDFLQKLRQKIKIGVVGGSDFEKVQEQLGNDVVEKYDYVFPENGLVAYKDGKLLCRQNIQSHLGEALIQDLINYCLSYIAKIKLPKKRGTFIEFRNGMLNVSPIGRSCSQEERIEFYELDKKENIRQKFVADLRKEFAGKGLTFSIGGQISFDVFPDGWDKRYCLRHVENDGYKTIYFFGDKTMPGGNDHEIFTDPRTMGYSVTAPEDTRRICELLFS

As for `CC(NC(=O)c1sc2cc([N+](=O)[O-])ccc2c1Cl)C(C)(C)C` (centres undefined), the results for the IC50 in assay [1], in assay [2] and in [3] were > 100 µM (inactive), > 80 µM (inactive) and 18.4 µM (active), respectively. The EC50 was 23.6 µM (inactive) at Hexokinase HKDC1 and 46.8 µM (inactive) on Hexokinase-1.
With `COC(=O)c1c(NC(=O)Cc2cccs2)sc2c1CCC(C)C2` (centres undefined), the IC50 is 6.23 µM (active) in assay [4] and > 16 µM (inactive) in assay [5]. Further, the AC50 in assay [6] was 2.78 µM (active).
On to `CCCc1nc2oc3cc(OC)ccc3c(=O)c2c(=O)n1Cc1ccco1`, for which the values for the IC50 in assay [7] and in assay [8] were > 100 µM (inactive) and > 100 µM (not active), respectively.
Take `COC(=O)CCCNC(=O)c1ccc(OC2CCN(CCc3ccccc3)CC2)cc1`: the EC50 (in assay [9]; on Mu-type opioid receptor; in assay [10]) was > 92.5 µM (inactive) each time.
For `Cc1ccc(C(C)NC(=O)/C(C#N)=C\c2c(C)[nH]c3ccccc23)cc1` (centres undefined), the 50% cytotoxic concentration (CC50) in assay [11] was 19.4 µM (active). For the same molecule, the IC50 is > 100 µM (inactive) in [7] and > 100 µM (not active) in [8].
Regarding `N#Cc1c(N2CCN(C(=O)c3ccccc3)CC2)nc(-c2ccccc2)c2c1CCCC2`, the IC50 (in assay [12]; on Beta-galactosidase) was > 66.6 µM (inactive) in each case. Further, the figures for the AC50 on CAAX prenyl protease 2 and at CAAX prenyl protease 1 were 8.3 µM (active) and 1.6 µM (active), respectively.
`COCCCN=C(S)NNC(=O)c1cccnc1`: in assay [13], the EC50 is > 32 µM (inactive).
On to `O=c1c2c([N+](=O)[O-])cc([N+](=O)[O-])cc2sn1-c1ccc(F)c(Cl)c1`, for which the half-maximal inhibitory concentration (IC50) in assay [14] was 12 µM (active); at Phosphomannomutase 2, 1.26 µM (active); in assay [15] it was 192 nM (active).
